Measured values reported in US11786586B2, “Carbohydrate structures and uses thereof” (AOA Dx, priority 2016, dated 2023).

How the values were obtained:
[1] = system: EL4-GD2+ cells; assay: 3H-thymidine incorporation (proliferation) assay, EL4-GD2+ stimulator cells; assay type: cell-based, mouse; settings: 25 μg/mL Mitomycin for 1 h
Protocol: (§1) EL4-GD2+ cells and control Jurkat cells were treated with 25 μg/mL Mitomycin (Sigma) for 1 h to arrest proliferation. After the cells were washed three times with media to remove Mitomycin, they were plated in 96-well plates at 2×10^5 cells/well. Single cell suspensions of splenocytes were obtained from twice immunized (as above) and from vehicle-injected control mice. Cells were separated following the protocol of the EasySep Negative Selection Mouse T-cell Enrichment Kit (Stemcell Technologies). […] The T-cells were plated at a ratio of 10:1 with Mitomycin-treated EL4 or Jurkat cells. As controls, cultures of T-cells alone (no stimulating tumor cells) or T-cells treated with Concanavalin A were used. After 5 days of culture, 0.1 μCi/well 3H-thymidine (Sigma-Aldrich) was added. DNA-incorporated 3H-thymidine was counted by liquid scintillation, and data are reported as average cpm ±SD. […] After 7 days, in vitro, cell viability was assessed by staining with 0.1% Trypan Blue, and cells were counted using a hemocytometer. Bright field images were acquired using an Olympus CKX41 microscope, mounted with an Infinity 1 digital camera and Infinity Analyze software (Lumenera Corporation).

[2] = system: Jurkat cells; assay: 3H-thymidine incorporation (proliferation) assay, Jurkat stimulator cells; assay type: cell-based; settings: 25 μg/mL Mitomycin for 1 h
Protocol: as §1

[3] = system: T-cells; assay: 3H-thymidine incorporation of T-cells treated with Concanavalin A; assay type: cell-based, mouse; settings: ConA stimulation; mean±SD
Protocol: as §1

[4] = Water solubility; assay type: physicochemical
Source text: Carbohydrates were synthesized as previously described (Gilbert, M., et al. J Biol Chem. 277(1):327-337, 2002; Chiu, C. P., et al. Nat Struc Mol Bio. 11(2)163-170, 2004; and Blixt, O., Carbohydrate Research. 340(12):1963-1972, 2005) by modification of the process for phenylthio-GD2 in which the phenylthio moiety was substituted with a p-aminophenylether in the starting p-aminophenyl-β-D-lactopyranoside (AP-Lac, from Toronto Research Chemicals), that was subsequently used to enzymatically synthesize the respective ganglioside carbohydrate for conjugation to the dendrimer (see below). AP-GD2 and AP-GD3 were water soluble (>20 mg/ml). The measured molecular weights of AP-GD2 (1218 g/mol) and AP-GD3 (927 g/mol) corresponded to expected values. Structures were verified by 1D and 2D NMR spectroscopy and mass spectrometry (EI-MS). The AP-GD2 and AP-GD3 intermediates were purified to >99% purity by size-exclusion chromatography (Superdex 30 16 mm×85 cm column, GE Health Care) before their application in the synthesis of the tetrameric vaccines.

## CO[C@@]12[C@H](COC(N)=O)C3=C(C(=O)C(C)=C(N)C3=O)N1C[C@@H]1N[C@@H]12 [Mitomycin]
[1]
  3H-thymidine incorporation of mitomycin-treated EL4-GD2+ cells: 188±4 cpm
[2]
  3H-thymidine incorporation of mitomycin-treated Jurkat cells: 107±5 cpm

## Concanavalin A [ConA]
[3]
  3H-thymidine incorporation, T-cells from Tetra-GD2 vaccinated mice: 19,834±309 cpm
  3H-thymidine incorporation, T-cells from naive mice: 21,457±504 cpm

## p-amino phenyl ether-GD2 [AP-GD2]
[4]
  water solubility (in words): water-soluble

## p-amino phenyl ether-GD3 [AP-GD3]
[4]
  water solubility (in words): water-soluble
